As usually defined, the EC50 is the concentration giving half of the maximal effect. Higher therefore signals weaker potency.

The target of the assay is T1, Urotensin-2 receptor (Homo sapiens, UniProt Q9UKP6).
T1 sequence (Q9UKP6 whole entry): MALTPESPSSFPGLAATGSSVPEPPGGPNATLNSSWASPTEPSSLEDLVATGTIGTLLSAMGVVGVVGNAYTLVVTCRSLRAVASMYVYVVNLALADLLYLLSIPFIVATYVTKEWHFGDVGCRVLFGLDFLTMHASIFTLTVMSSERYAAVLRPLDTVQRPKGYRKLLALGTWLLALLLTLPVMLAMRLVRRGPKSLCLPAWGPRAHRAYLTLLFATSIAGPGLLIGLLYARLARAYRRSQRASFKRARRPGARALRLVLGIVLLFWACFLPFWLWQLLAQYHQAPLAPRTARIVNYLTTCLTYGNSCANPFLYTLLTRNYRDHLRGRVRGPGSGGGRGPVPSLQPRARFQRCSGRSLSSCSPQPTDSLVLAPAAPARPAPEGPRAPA
Nature of the assay: Agonist activity for human Urotensin 2 receptor. It is filed as functional.
Regarding `CN(C)CCC1(c2ccc(Cl)cc2)Cc2ccccc2C(=O)O1` (stereo not drawn), the EC50 is 0.3 µM. That is a sub-micromolar value.
`CCN(CC)CCC1C(c2ccccc2)=Nc2ccccc2SC1c1ccc(Cl)cc1` (stereo not drawn) showed an EC50 of 6.3 µM.
Then `CCN(CC)CCC1=C(c2ccccc2)NC(=O)N(C)C1c1ccc(Cl)cc1` (stereo not drawn), with 5 µM.

Values taken from ChEMBL document CHEMBL1143570, “Architecture of the human urotensin II receptor: comparison of the binding domains of peptide and non-peptide urotensin II agonists” (J Med Chem, 2005).
